Source: patent US12209140B2, “Therapeutics for the treatment of glaucoma” (Mayo Foundation for Medical Education and Research, priority 2014, dated 2025)
Entries after “also recorded” stand apart in the source; their conditions may differ.

Tests used:
[1] = tested on: normotensive C57BL/6 mice; experiment: intraocular pressure change in normotensive mice after treatment; format: in vivo, mouse; conditions: for combination treatment in mice with CKL/CKLP1 and prostaglandin analog LFA (FIG. 2 values, pressure change): alone or combined with latanoprost free acid, additive effects; for IOP lowering in the presence of Erk1/2 inhibitor U0126: mice (n=10), CKLP1+LFA+U0126
Description: FIG. 1B is a graph of the change in C57BL/6 mice intraocular pressure following treatment with cromakalim in DMSO or CKLP1 in aqueous carrier. FIG. 2 is a graph of the combination treatment in mice with […]1 and prostaglandin showing additive effects. CKL: -12.77±2.38, […]1: -16.11±2.61, CKLP1+LFA: -26.06±2.98. FIG. 1A is a graph of pressure readings obtained from a pair of human anterior eye segments where one eye was treated with a KATP channel opener prodrug (CKLP1) while the fellow anterior segment was treated with vehicle alone. […] FIG. 1B is a graph of pressure change obtained in normotensive C57BL/6 mice following treatment with parent (CKL) and prodrug (CKLP1). […] FIG. 3 is a graph showing the treatment with various forms of CKL. FIG. 4 is a graph showing the treatment of rabbits (n=5) with CKL-P1 in PBS, optically active isomer. FIG. 5 is a graph showing the treatment with ent-CKLP1(5 mM).

[2] = tested on: rabbits; experiment: treatment of rabbits (intraocular pressure model); format: in vivo
Description: FIG. 4 is a graph showing the treatment of rabbits with CKL-P1 in PBS, optically active isomer. FIG. 3 is a graph showing the treatment with various forms of CKL. FIG. 4 is a graph showing the treatment of rabbits (n=5) with CKL-P1 in PBS, optically active isomer. FIG. 5 is a graph showing the treatment with ent-CKLP1(5 mM).

[3] = tested on: human anterior eye segments; experiment: human anterior segment perfusion organ culture (ex vivo human eye), pressure readings
Description: FIG. 1A is a graph of pressure readings obtained from a pair of human anterior eye segments where one eye was treated with a KATP channel opener prodrug (CKLP1) while the fellow anterior segment was treated with vehicle alone. […] FIG. 1B is a graph of pressure change obtained in normotensive C57BL/6 mice following treatment with parent (CKL) and prodrug (CKLP1).

[4] = tested on: eyes; experiment: activity in vivo in eyes
Excerpt: The enantiomer of CKLP1 is referred to as “ent-CKLP1”. CKLP1 can be synthesized from levcromakalim while ent-CKLP1 can be synthesized from (+)-cromakalim.

[5] = tested on: rat cortical neurons; experiment: H2O2 oxidative stress in rat cortical neurons, lactate dehydrogenase assayed; format: cell-based; conditions: 75 μM H2O2 for 24 hours with and without CKLP1
Excerpt: The present invention also provides a CKLP1 composition used to treat neurons; a CKLP1 composition used for neuroprotection; a method of neuroprotection using a CKLP1 composition; a method of treating neurons using a CKLP1 composition; and methods and compositions for the treatment of ocular hypertension, blindness and loss of vision using a CKLP1 composition. The claimed CKLP1 composition provides neuroprotective properties. […] Therefore, CKLP1 and other prodrugs (as disclosed herein) may represent the first in class treatment for glaucoma that can treat the main risk factor (elevated intraocular pressure) and also the sight of damage (optic nerve).

With `CC1(C)Oc2ccc(C#N)cc2C(N2CCCC2=O)C1O` (centres unmarked) [CKL, cromakalim, reference compound] the “combination treatment in mice with CKL/CKLP1 and prostaglandin analog LFA (FIG. 2 values, pressure change)” value [1] was −12.77±2.38.
For `CC1(C)Oc2ccc(C#N)cc2[C@@H](N2CCCC2=O)[C@@H]1OP(=O)(O)O` [CKLP1], the “activity in rabbit model” value [2] was “good activity”, the “pressure in human anterior segment perfusion organ culture” value ([3]; CKLP1 2 μM, fellow anterior segment treated with vehicle alone) was “reduction of pressure; also recorded: reduces pressure” and the “activity in ex vivo human eyeball model” value ([3]; ex vivo human eyeball) was “good activity”. The “IOP lowering in the presence of Erk1/2 inhibitor U0126” value [1] was “not able to lower pressure”, the “combination treatment in mice with CKL/CKLP1 and prostaglandin analog LFA (FIG. 2 values, pressure change)” value [1] was −16.11±2.61 and the “biological activity in normotensive mouse model” value ([1]; mouse) was “good activity”. The “activity in vivo in eyes” value [4] was “active” and the “H2O2 oxidative stress (lactate dehydrogenase levels)” value [5] was “inhibited H2O2 oxidative stress”.
For `O=C(O)CCC/C=C\C[C@@H]1[C@@H](CC[C@@H](O)CCc2ccccc2)[C@H](O)C[C@@H]1O` [LFA, latanoprost free acid, reference compound], the “IOP lowering in the presence of Erk1/2 inhibitor U0126” value [1] was “can lower IOP”.
`CC1(C)Oc2ccc(C#N)cc2[C@H](N2CCCC2=O)[C@H]1OP(=O)(O)O` [ent-CKLP1] was tested, and the “activity in vivo in eyes” value [4] was “active”.
